Experimental data: patent publication EP0536208B1, “1,2-DIHYDRO-3H-DIBENZISOQUINOLINE-1,3-DIONE ANTICANCER AGENTS” (RESEARCH CORPORATION TECHNOLOGIES, INC., priority 1990, dated 1992)
In brackets after ≈: the same amount, converted by molar mass. Like-named read-outs stand apart in the source and are kept apart here.

Assays:
[1] = tested on: 2780 Human Ovarian Cancer; test: In vitro tumor cell viability assay using MTT dye; type: cell-based; details: MTT dye reduction
Experimental: (§1) Compounds of the present invention were tested for their in vitro activity in tumor cells sensitive and resistant to standard anti-cancer agents. The tumor cell lines used in this protocol are 8226 human Myeloma^1; 8226/Dox-40^2, L-1210/Murine Leukemia, multidrug resistant L-210/^3, 2780 Human Ovarian Cancer and 2780/AD^4. Each of these resistant cell lines is known as a multidrug resistant or "MDR" cell line. These cell lines produce a 170,00 molecular weight membrane protein termed the P-glycoprotein which acts as an active drug efflux pump. Thus, once a cell produces the P-glycoprotein, it has the capability of pumping out of the cell a large variety of unrelated natural products. […] The protocol for measuring the effectiveness of compounds of the present invention is as follows: 2) In Vitro Tumor Cell Viability Assays Using MTT-Dye: Tumors are processed into a single cell suspension as described above. The cells are plated at a concentration of 3-5 X 10^4/1 mL well into plastic 96-well plates. […] Afterwards the medium containing the drug is removed, the cells are "washed" by centrifugation in fresh medium or phosphate-buffered saline (pH 7.4). A tetrazolium dye is then added (3,4,5-dimethylthiazol-2-yl)-2,5-diphenyl tetrazolium bromide (MTT). This dye forms a colored formazan product upon activation by mitochondrial reductases in viable cells. Typically, the formazan product is solubilized in acid-propanol or DMSO. The intensity of the color is proportional to viable cell numbers and this is quantitated by spectrophotometric absorbance ([…]) on a micro ELISA plate reader. Test results are calibrated in % control absorbance from untreated tumor cells (Mossman T: J Immunol Meth 65:55-63, 1983). Using the above procedure, Compound 1 was tested for its cytotoxic activity with respect to various tumor cell lines.

8226 Human Myeloma = test: In vitro tumor cell viability assay using MTT dye; type: cell-based
Experimental: as §1

L-1210/Murine Leukemia = test: In vitro tumor cell viability assay using MTT dye; type: cell-based; details: Mus musculus
Experimental: as §1

[2] = tested on: P-388 lymphocytic leukemia; test: Survival study in tumor-bearing mice, P-388 leukemia model; type: in vivo; details: 10^6 cells in DBA mice; 16 mg/kg; d1,5,9; intraperitoneally
Text: Thus, in the lower level resistant cell lines, such as the ten-fold mitomycin C resistant L1210 and the tenfold adriamycin resistant 2780 ovarian cancer, Compound 1 maintained its complete activity as shown in Table II. The anti-tumor activity of compounds of the present invention in in vivo mouse murine models were studied. 3) Survival Studies In Tumor-Bearing Mice: 3.1 P-388 Leukemia Modles: One million P-388 leukemia cells originally obtained from American Type Culture Collection (Rockville, MD) are implanted into the peritoneum of adult DBA-2J male mice (Jackson Laboratories, Bar Harbor, ME). Twenty four hours later, drugs diluted in physiological saline are injected intraperitoneally at a volume of 0.1 mL/10 g body weight. The mice (10/group) are then followed for survival daily and compared to untreated tumor bearing mice. […] The perpendicular widths of the tumors are measured by caliper thrice weekly and converted to an estimated tumor mass according to the formula: ((1 X W)^2)/(2)= grams of tumor. [formula] wherein • W = width of tumor • l = length of tumor Tumor growth delay is calculated as the difference in days for tumors in treated mice to reach an estimated mass 750 mg or 1.5 g compared to that in untreated controls: Days to reach 750 mg (Treated - Control) = Days of Tumor Growth Delay [formula] […]

M5-76 Sarcoma = test: Tumor growth delay in mice, M5-76 sarcoma model; type: in vivo; details: -76 Sarcoma (Southern Research Institute)
Experimental: Corbett, T.H., et al., Cancer Chemo Rep., 5 (1975). Mammary 16-C Adenocarcinoma and M5-76 Sarcoma: Chunks of tumor (20-50 mg) are subcutaneously implanted into the flank of B6C3F1 female mice. Drugs (10-45 mg/kg) are dissolved in saline and injected intraperitoneally every four days for three times starting one day after tumor implantation. Tumors are measured bidimensionally as described above and tumor growth delay is calculated at times to reach 1.5 and 3.0 g of tumor mass.

FRESH HUMAN TUMORS = test: Colony forming assay in fresh human tumors, all tumor types; type: cell-based; details: Total of all tumor types; .001 ug/mL continuously; tumor cell survival of less than 50% of control
Experimental: The clonogenic assays were conducted in accordance with the procedure described hereinbelow: 1) Colony Forming Assays in Soft Agar: Fresh human or murine tumors are disaggregated into single cell suspensions using mechanical, hypoosmotic and/or enzymatic (trypsin) methods. The single cells (about 5 X 10^4-10^5) are plated in 35 mm plastic petri dishes onto a 1 ml "feeder layer" of 0.3% agar dissolved in growth medium containing 5-10% vol/vol of heat-inactivated fetal bovine serum, molten 0.3% agar and the antibiotics penicillin (100 u/mL) and streptomycin (100 ug/mL). Drug exposures can be performed for one hour or continuously (drugs added to final plating medium). Tumor cell colonies > 60 uM in size are counted by automated image analysis after 10-20 days of incubation in a humidified, 5-10% CO2-gassed environment maintained at 37°C. Inhibition of colony formation is calculated based on comparisons to control (untreated) plates wherein the growth of hundreds of colonies/plate is typical. […]
Fresh human tumor specimens disaggregated to single cell suspensions and exposed to .001 ug/mL of drug continuously. Percent survival represents the fraction of tumor colonies (> 60 uM size) obtained after drug treatment compared to untreated cells of the same tumor. […] Each tumor sample is analyzed in three different petri dishes (i.e., n = 3 for each sample).

IC50 [1]: 4000 ng/mL (≈ 12.6 µM)
IC50 (8226 Human Myeloma; 96 h, 8226 Human Myeloma, 4-day drug exposure, MTT dye reduction, read-out: Activity (IC50)): 11 ng/mL (≈ 0.0346 µM)
IC50 (8226 Human Myeloma; Homo sapiens, 8226 Myeloma Cells Sensitive, continuous exposure, MTT dye assay, read-out: IC50 VALUES): 10 ng/mL (≈ 0.0314 µM)
IC50 (L-1210/Murine Leukemia; 144 h, Sensitive L1210, six day MTT assay, continuous drug exposure, read-out: Concentration for 50% inhibition of tumor cells): 2.5 ng/mL (≈ 0.00785 µM)
IC50 (L-1210/Murine Leukemia; L1210, 96 h, L-1210/Murine Leukemia, 4-day drug exposure, MTT dye reduction, read-out: Activity (IC50)): 3 ng/mL (≈ 0.00942 µM)
IC50 (L-1210/Murine Leukemia; L1210 Leukemia Cells Sensitive, continuous exposure, MTT dye assay, read-out: IC50 VALUES): 2.8 ng/mL (≈ 0.00879 µM)
Compound: CN(C)CCN1C(=O)c2cccc3cc4ccccc4c(c23)C1=O [Compound 1, 2-[2'-(dimethylamino)ethyl]-1,2-dihydro-3H-dibenz(deh)isoquinoline-1,3-dione]
Experimental Activity, ILS (Percentage Increased Lifespan) [2]: 00:ILS*
Experimental Activity, Days of Tumor Growth Delay (M5-76 Sarcoma): 7 days
Overall Response (FRESH HUMAN TUMORS): 51%
